TGI data for four compounds are collected here from PubChem BioAssay (NCI).

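Tested at 5 concentrations; 48 h exposure; 96-well plates; endpoints linearly interpolated, else capped at highest concentration. The concentration for full growth arrest is given as TGI.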

Among the test systems are MALME-3M melanoma; HOP-18 NSCLC; DMS 114 small cell lung; EKVX NSCLC; RPMI-8226 leukemia; HT29 colon; SNB-78 CNS; XF 498 CNS; DLD-1 colon; M19-MEL melanoma; NCI/ADR-RES ovarian; UACC-62 melanoma; M14 melanoma; DMS 273 small cell lung; SNB-75 CNS; KM20L2 colon; A549 NSCLC; LXFL 529 NSCLC.
Test in all cases: NCI tumour cell line growth inhibition, 48 h

Regarding `COc1ccc(OC)c2c1C(=O)C(Cl)=C(Cl)C2=O`, the TGI was 4.46 µM with MALME-3M melanoma; 12.4 µM in the experiment with HOP-18 NSCLC; 4.76 µM in the experiment on DMS 114 small cell lung; 21.9 µM in the experiment on EKVX NSCLC; more than 27.6 µM in the experiment on RPMI-8226 leukemia; 15.5 µM with HT29 colon. The TGI in the experiment with SNB-78 CNS was 15.8 µM; in the experiment on XF 498 CNS, 3.67 µM; in the experiment with DLD-1 colon, 11.8 µM; in the experiment on M19-MEL melanoma, 16.2 µM; in the experiment on NCI/ADR-RES ovarian, 5.74 µM; in the experiment on UACC-62 melanoma, 6.9 µM. Besides, the TGI in the experiment with M14 melanoma turned out to be 6.46 µM; in the experiment with DMS 273 small cell lung, 20.1 µM; in the experiment on SNB-75 CNS it was 29.1 µM; with KM20L2 colon it was 22.3 µM; in the experiment on A549 NSCLC, 56.4 µM; with LXFL 529 NSCLC, 4.74 µM.
Turning to `CCCN(CCC)C(=O)Cc1c2n(c3ccccc13)CCCc1ccccc1-2`, the TGI was 26.8 µM in the experiment on MALME-3M melanoma; 30.3 µM with HOP-18 NSCLC; 24.1 µM in the experiment on DMS 114 small cell lung; 28.5 µM in the experiment on EKVX NSCLC; 37.6 µM in the experiment with RPMI-8226 leukemia; 26 µM in the experiment on HT29 colon. Also, the TGI with SNB-78 CNS turned out to be 27.6 µM; in the experiment on XF 498 CNS, 28.8 µM; in the experiment with DLD-1 colon, 26.5 µM; in the experiment with M19-MEL melanoma, 29.5 µM; in the experiment with UACC-62 melanoma it was 23 µM; in the experiment on M14 melanoma, 26.4 µM. Further, the TGI is 23.2 µM in the experiment on DMS 273 small cell lung; 24.4 µM with SNB-75 CNS; 27.9 µM in the experiment on KM20L2 colon; 28.2 µM with A549 NSCLC; 26.6 µM with LXFL 529 NSCLC.
`CCCC/C=C1\CCC(CN2CCOCC2)C1=O` (centres undefined): the TGI in the experiment on MALME-3M melanoma turned out to be 4.95 µM; with HOP-18 NSCLC it was 2.05 µM; with DMS 114 small cell lung, 15.8 µM; with EKVX NSCLC, 28.3 µM; in the experiment on RPMI-8226 leukemia it was 2.59 µM; with HT29 colon, 12.1 µM. Moreover, the TGI in the experiment on SNB-78 CNS is 32.3 µM; with XF 498 CNS it was 3.15 µM; in the experiment on DLD-1 colon, 3.13 µM; in the experiment with M19-MEL melanoma it was 15.2 µM; with UACC-62 melanoma, 16 µM; in the experiment on M14 melanoma, 10.3 µM. Further, the TGI came to 17.6 µM with DMS 273 small cell lung; 20.7 µM in the experiment with SNB-75 CNS; 11.4 µM in the experiment with KM20L2 colon; 46.2 µM in the experiment with A549 NSCLC; 2.74 µM in the experiment on LXFL 529 NSCLC.
`CC1(Br)C(=O)NC(=O)N([C@H]2C[C@H](O)[C@@H](CO)O2)C1N=[N+]=[N-]` (some centres undefined): the TGI with MALME-3M melanoma, with HOP-18 NSCLC, with DMS 114 small cell lung, with EKVX NSCLC, in the experiment on RPMI-8226 leukemia and in the experiment on HT29 colon was more than 100 µM each time. For the same compound, the TGI with SNB-78 CNS, in the experiment with XF 498 CNS, in the experiment with DLD-1 colon, with M19-MEL melanoma, in the experiment on UACC-62 melanoma and in the experiment on M14 melanoma was more than 100 µM each time. Besides, the TGI in the experiment with DMS 273 small cell lung, with SNB-75 CNS, in the experiment on KM20L2 colon, in the experiment on A549 NSCLC and in the experiment with LXFL 529 NSCLC was more than 100 µM throughout.
